# Measurements taken from patent publication US20140343324A1, “SYNTHETIC MATRIX FOR CONTROLLED CELL INGROWTH AND TISSUE REGENERATION” (Eidgenossische Technische Hochschule Zürich, priority 2001, published 2014).
# Tested on: human foreskin fibroblasts (hFFs)
# Test: Three-dimensional cell invasion from hFF-fibrin clusters into PEG-based hydrogels
# Conditions: compared with collagen type I derived GCRDGPQGIAGQDRCG
# Procedure: Near-confluent cultures of human foreskin fibroblasts (hFFs) were trypsinized, centrifuged and resuspended in 2% (m/v) fibrinogen from human plasma (Fluka, Switzerland) in sterile phosphate buffered solution (PBS) to a concentration of […]. To induce gelation of the hFF-fibrinogen suspension, thrombin (Sigma T-6884, Switzerland) and Ca^++ were added to final concentrations of 2 NIH units/mL and 2.5 mM, respectively, and rapidly mixed with the cell suspension. Prior to gelation, 2 μL droplets of this cell-fibrinogen precursor were gelled on microscope slides for ca. 15 min. at 37° C. The hFF-fibrin clusters were embedded inside 25 μl PEG-based hydrogels by placing three to four clusters into precursor solution prior to gelation. Such hFF-fibrin clusters embedded inside the PEG-based hydrogels were cultured serum-containing DMEM in the 12-well tissue culture plates for up to 30 days. Cell invasion from the cluster into the synthetic gel matrix was imaged and recorded with their center plane in focus. To quantify the penetration depth of the outgrowth, the area of the original hFF-fibrin cluster was measured in the center plane, as was the area of the hFF outgrowth, defined by the tips of the hFF branches in the center plane of focus. […]
sequence,measurement,value
GCRDGPQGIWGQDRCG (Ac-GCRDGPQGIWGQDRCG-NH2; cysteine pairing not given here) [synthetic MMP substrate capable of forming a hydrogel by Michael-type addition],degradation of MMP substrate in hydrogel,degrades significantly faster
